Values of other authors as cited in patent US5370873A, “Therapeutic compounds derived from the neem tree” (priority 1992, dated 1994).
Like-named read-outs stand apart in the source and are kept apart here.

How the values were obtained:
[1] = not given; remark: listed apart in the source
[2] = in vivo
[3] = tested on: murine P-388 lymphocytic leukemia cell line

nimbidin
systemic toxicity in rats: failed to demonstrate any systemic toxicity
systemic toxicity in dogs [1]: failed to demonstrate any systemic toxicity

Neem oil
local or systemic side effects in human subjects [2]: no local or systemic side effects
local or systemic side effects in human subjects ([2]; po): no local or systemic side effects

7-acetyl neotrichilenone
ED50, murine P-388 lymphocytic leukemia cell line [3]: 10 mg

CC(=O)O[C@@H]1C[C@H]2C(C)(C)C(=O)C=C[C@]2(C)[C@H]2CC[C@@]3(C)[C@H](c4ccoc4)OC(=O)[C@H]4O[C@]43[C@@]21C [gedunin]
inhibition of development of Plasmodium falciparum in vitro (Plasmodium falciparum): inhibit the development of the human malarial parasite Plasmodium falciparum in vitro

1,2-diapoxyazadiradione
ED50, murine P-388 lymphocytic leukemia cell line [3]: 8.5 mg

C/C=C(\C)C(=O)O[C@H]1C[C@@H](OC(C)=O)[C@@]2(C(=O)OC)CO[C@H]3[C@@H](O)[C@@](C)([C@]45O[C@@]4(C)[C@H]4C[C@@H]5O[C@@H]5OC=C[C@@]54O)[C@H]4[C@]1(CO[C@]4(O)C(=O)OC)[C@@H]32 [azadiractin]
insect feeding repellency (insect): very potent insect feeding repellents
